The source of these data is US20170118987A1, “SYNERGISTIC HERBICIDAL COMPOSITION AND USE THEREOF” (ROTAM AGROCHEM INTERNATIONAL CO., LTD, priority 2015, published 2017).

The conditions of data set [1]: compared with the amorphous state; from U.S. Ser. No. 14/926,133; cited from earlier work.
A short description of data set [2]: Stability of iodosulfuron-methyl-sodium solid forms. As to conditions: hydrolysis when dissolved or dispersed in water and during storage exposed to moisture. In kind it is physicochemical.

Structures are written as SMILES.

`COC(=O)c1ccc(I)cc1S(=O)(=O)NC(=O)Nc1nc(C)nc(OC)n1.[Na]` [sodium salt of methyl 4-iodo-2-[[[[(4-methoxy-6-methyl-1,3,5-triazin-2-yl)amino]carbonyl]amino]sulfonyl]benzoate]: the stability in formulations entry in data set [1] is “improved stability”. The stability entry in data set [2] is “highly unstable”.
